Several values for one entry are separate records, joined by “and”; a condition that tells them apart may be missing. Equal entries are not always repeated.
Experiments:
[1] = target: T1, HNE (human neutrophil elastase) (Homo sapiens, UniProt P08246); assay: HNE inhibition assay (fluorogenic substrate cleavage); format: biochemical; settings: for HNE inhibitory activity, result in words: highest concentration tested 50 µM; for IC50: mean ± SD of three independent experiments, NA: no inhibitory activity at the highest concentration tested (50 µM)
T1 construct: purchased Calbiochem
T1 sequence (P08246 30-267): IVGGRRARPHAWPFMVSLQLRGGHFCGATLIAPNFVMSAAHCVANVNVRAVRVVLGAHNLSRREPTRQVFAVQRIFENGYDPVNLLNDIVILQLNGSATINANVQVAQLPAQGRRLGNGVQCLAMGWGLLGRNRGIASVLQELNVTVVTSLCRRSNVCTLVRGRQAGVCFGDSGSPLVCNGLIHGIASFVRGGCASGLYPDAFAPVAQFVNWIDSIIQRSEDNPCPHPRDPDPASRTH
Experimental: Compounds were dissolved in 100% DMSO at 5 mM stock concentrations. […] The HNE inhibition assay was performed in black flat-bottom 96-well microtiter plates. Briefly, a buffer solution containing 200 mM Tris–HCl, pH 7.5, 0.01% bovine serum albumin, and 0.05% Tween-20 and 20 mU/mL of HNE (Calbiochem) was added to wells containing different concentrations of each compound. The reaction was initiated by addition of 25 µM elastase substrate (N-methylsuccinyl-Ala-Ala-Pro-Val-7-amino-4-methylcoumarin, Calbiochem) in a final reaction volume of 100 µl/well. Kinetic measurements were obtained every 30 s for 10 min at 25 °C using a Fluoroskan Ascent FL fluorescence microplate reader (Thermo Electron, MA) with excitation and emission wavelengths set at 355 and 460 nm, respectively. For all compounds tested, the concentration of inhibitor that caused 50% inhibition of the enzymatic reaction (IC50) was calculated by plotting % inhibition versus logarithm of inhibitor concentration (at least six points). The data are presented as the mean values of at least three independent experiments with relative standard deviations of <15%.

[2] = Analysis of compound stability: spontaneous hydrolysis in aqueous buffer; format: physicochemical; settings: 25 °C, 0.05 M phosphate buffer, pH 7.3; read-out: t1/2 for spontaneous hydrolysis (converted)
Experimental: Spontaneous hydrolysis of selected derivatives was evaluated at 25 °C in 0.05 M phosphate buffer, pH 7.3. Kinetics of hydrolysis were monitored by measuring changes in the absorbance spectra over time using a SpectraMax Plus microplate spectrophotometer (Molecular Devices, Sunnyvale, CA). Absorbance (At) at the characteristic absorption maxima of each compound was measured at the indicated times until no further absorbance decreases occurred (A∞)[52]. Using these measurements, we created semilogarithmic plots of log(At–A∞) versus time, and k′ values were determined from the slopes of these plots. Half-conversion times were calculated using t1/2 = 0.693/k′, as described previously[36]^,[37].

[3] = target: T2, HNE (Homo sapiens, UniProt P08246); assay: Reversibility of HNE inhibition over extended periods of time; format: biochemical; settings: 8 µM compound
T2 construct: purchased Calbiochem
T2 sequence (P08246 30-267): T1 sequence (P08246 30-267)
Experimental: The inhibition was maximal for up to 60 min with compound 7e and >120 min for the other tested compounds (4a, 4b, and 7a). However, inhibition by the compounds was eventually reversed, and full recovery of HNE activity was observed by 4 h after treatment with 8 µM of the compound (e.g. see Figure 6).
Figure 6. […] HNE was incubated with the indicated compounds (8 µM), and kinetic curves monitoring substrate cleavage catalysed by HNE over time are shown. Representative curves are from two independent experiments.

[4] = target: T2, HNE; assay: Kinetics of HNE inhibition (double-reciprocal Lineweaver–Burk plots); format: biochemical; settings: Lineweaver–Burk plot of fluorogenic substrate hydrolysis
Source text: To better understand the mechanism of action of these isoxazolone HNE inhibitors, we performed kinetic experiments.
Figure 7. Kinetics of HNE inhibition by compounds 7d and 8d. Representative double reciprocal Lineweaver–Burk plots are shown from three independent experiments.

Structure (SMILES) | melting point | IC50 [1] | also measured
Cc1cccc(Cn2oc(=O)c(-c3ccccc3)c2C)c1 [Compound 2, 3-Methyl-2-(3-methylbenzyl)-4-phenylisoxazol-5(2H)-one] |  |  | HNE inhibitory activity, result in words [1]: completely inactive
Cc1c(-c2ccccc2)c(=O)on1S(=O)(=O)c1ccc(O)cc1 [Compound 3a, 2-((4-Hydroxyphenyl)sulfonyl)-3-methyl-4-phenylisoxazol-5(2H)-one] | 50 to 51 °C |  | HNE inhibitory activity, result in words [1]: inactivity
Cc1c(-c2ccccc2)c(=O)on1S(=O)(=O)c1ccc(OC(=O)C(C)(C)C)cc1 [Compound 3b, 4-((3-Methyl-5-oxo-4-phenylisoxazol-2(5H)-yl)sulfonyl)phenyl pivalate] |  | 59 ± 20 nM | 
Cc1c(-c2ccccc2)c(=O)on1S(=O)(=O)c1ccc(NC(=O)C(C)(C)C)cc1 [Compound 3c, N-(4-((3-methyl-5-oxo-4-phenylisoxazol-2(5H)-yl)sulfonyl)phenyl)pivalamide] |  |  | HNE inhibitory activity, result in words [1]: completely inactive
Cc1cccc(C(=O)n2oc(=O)c(-c3ccccc3)c2C)c1 [Compound 4a, 3-Methyl-2-(3-methylbenzoyl)-4-phenylisoxazol-5(2H)-one] | 85 to 88 °C | 77 ± 27 nM | half-life [2]: 4.1 h; time for which HNE inhibition was maximal [3]: > 120 min
Cc1c(-c2ccccc2)c(=O)on1C(=O)C1CC1 [Compound 4b, 2-(Cyclopropanecarbonyl)-3-methyl-4-phenylisoxazol-5(2H)-one] | 83 to 86 °C | 59 ± 18 nM | half-life [2]: 8.3 h; time for which HNE inhibition was maximal [3]: > 120 min
Cc1ccc(C(=O)n2oc(=O)c(-c3ccccc3)c2C)cc1 [Compound 4c, 3-Methyl-2-(4-methylbenzoyl)-4-phenylisoxazol-5(2H)-one] | 134 to 136 °C | 230 ± 34 nM | 
Cc1ccccc1C(=O)n1oc(=O)c(-c2ccccc2)c1C [Compound 4d, 3-Methyl-2-(2-methylbenzoyl)-4-phenylisoxazol-5(2H)-one] | 99 to 100 °C | 350 ± 36 nM | 
Cc1c(-c2ccccc2)c(=O)on1C(=O)c1cccc(C(F)(F)F)c1 [Compound 4e, 3-Methyl-4-phenyl-2-(3-(trifluoromethyl)benzoyl)isoxazol-5(2H)-one] | 96 to 97 °C | 200 ± 27 nM | 
Cc1c(-c2ccccc2)c(=O)on1C(=O)c1cccc(S(C)(=O)=O)c1 [Compound 4f, 3-Methyl-2-(3-(methylsulfonyl)benzoyl)-4-phenylisoxazol-5(2H)-one] | 185 to 186 °C | 29600 ± 7200 nM | 
Cc1c(-c2ccccc2)c(=O)on1C(=O)c1cccc(C#N)c1 [Compound 4g, 3-(3-Methyl-5-oxo-4-phenyl-2,5-dihydroisoxazole-2-carbonyl)benzonitrile] | 118 to 119 °C | 6300 ± 1400 nM | 
Cc1c(-c2ccccc2)c(=O)on1C(=O)c1ccc(C#N)cc1 [Compound 4h, 4-(3-Methyl-5-oxo-4-phenyl-2,5-dihydroisoxazole-2-carbonyl)benzonitrile] | 178 to 180 °C (dec.) | 11400 ± 1900 nM | 
Cc1c(-c2ccccc2)c(=O)on1C(=O)c1ccc(NC(=O)C(C)(C)C)cc1 [Compound 4i, N-(4-(3-methyl-5-oxo-4-phenyl-2,5-dihydroisoxazole-2-carbonyl)phenyl)pivalamide] | 132 to 134 °C | 8500 ± 2100 nM | 
Cc1c(-c2ccccc2)c(=O)on1C(=O)c1ccc(OC(=O)C(C)(C)C)cc1 [Compound 4l, 4-(3-Methyl-5-oxo-4-phenyl-2,5-dihydroisoxazole-2-carbonyl)phenyl pivalate] | 130 to 132 °C | 480 ± 130 nM | 
Cc1cccc(C(=O)n2oc(=O)c(-c3ccccc3)c2-c2ccccc2)c1 [Compound 4m, 2-(3-Methylbenzoyl)-3,4-diphenylisoxazol-5(2H)-one] | 160 to 163 °C | 10100 ± 1300 nM | 
O=C(C1CC1)n1oc(=O)c(-c2ccccc2)c1-c1ccccc1 [Compound 4n, 2-(Cyclopropanecarbonyl)-3,4-diphenylisoxazol-5(2H)-one] | 100 to 103 °C | 17200 ± 2300 nM | 
Cc1cccc(C(=O)n2oc(=O)c(C)c2-c2ccccc2)c1 [Compound 4o, 4-Methyl-2-(3-methylbenzoyl)-3-phenylisoxazol-5(2H)-one] |  | 13600 ± 2400 nM | 

Structure (SMILES) | melting point | IC50 [1] | also measured
Cc1c(-c2ccccc2)n(C(=O)C2CC2)oc1=O [Compound 4p, 2-(Cyclopropanecarbonyl)-4-methyl-3-phenylisoxazol-5(2H)-one] |  | 1100 ± 140 nM | 
Cc1cccc(C(=O)n2oc(=O)cc2-c2ccccc2)c1 [Compound 4q, 2-(3-Methylbenzoyl)-3-phenylisoxazol-5(2H)-one] |  | 48700 ± 3300 nM | 
O=C(C1CC1)n1oc(=O)cc1-c1ccccc1 [Compound 4r, 2-(Cyclopropanecarbonyl)-3-phenylisoxazol-5(2H)-one] |  | 12700 ± 2700 nM | 
Cc1cccc(C(=O)n2oc(=O)cc2-c2ccc([N+](=O)[O-])cc2)c1 [Compound 4s, 2-(3-Methylbenzoyl)-3-(4-nitrophenyl)isoxazol-5(2H)-one] | 177 to 180 °C (dec.) |  | HNE inhibitory activity, result in words [1]: completely inactive
O=C(C1CC1)n1oc(=O)cc1-c1ccc([N+](=O)[O-])cc1 [Compound 4t, 2-(Cyclopropanecarbonyl)-3-(4-nitrophenyl)isoxazol-5(2H)-one] |  |  | HNE inhibitory activity, result in words [1]: completely inactive
CC(=O)Nc1ccc(-c2cc(=O)on2C(=O)c2cccc(C)c2)cc1 [Compound 4u, N-(4-(2-(3-methylbenzoyl)-5-oxo-2,5-dihydroisoxazol-3-yl)phenyl)acetamide] |  | 28600 ± 3300 nM | 
Cc1ccc(-c2c(C)n(C(=O)c3cccc(C)c3)oc2=O)cc1 [Compound 7a, 3-Methyl-2-(3-methylbenzoyl)-4-(p-tolyl)isoxazol-5(2H)-one] |  | 20 ± 9 nM | half-life [2]: 7.7 h; time for which HNE inhibition was maximal [3]: > 120 min
Cc1cccc(C(=O)n2oc(=O)c(-c3ccc(C#N)cc3)c2C)c1 [Compound 7b, 4-(3-Methyl-2-(3-methylbenzoyl)-5-oxo-2,5-dihydroisoxazol-4-yl)benzonitrile] | 108 to 110 °C | 70 ± 20 nM | time after which HNE inhibition was reversed [3]: ~30 min
Cc1cccc(C(=O)n2oc(=O)c(-c3ccc([N+](=O)[O-])cc3)c2C)c1 [Compound 7c, 3-Methyl-2-(3-methylbenzoyl)-4-(4-nitrophenyl)isoxazol-5(2H)-one] | 152 to 154 °C | 210 ± 40 nM | 
Cc1cccc(C(=O)n2oc(=O)c(-c3ccc(NC(=O)C4CC4)cc3)c2C)c1 [Compound 7e, N-(4-(3-methyl-2-(3-methylbenzoyl)-5-oxo-2,5-dihydroisoxazol-4-yl)phenyl)ciclopropanecarboxamide] | 120 to 123 °C | 50 ± 20 nM | half-life [2]: 9.6 h; time for which HNE inhibition was maximal [3]: up to 60 min
Cc1ccc(-c2c(C)noc2OC(=O)c2cccc(C)c2)cc1 [Compound 8a, 3-Methyl-4-(p-tolyl)isoxazol-5-yl 3-methylbenzoate] |  | 10000 nM and 10200 nM | half-life [2]: 5.3 h
Cc1cccc(C(=O)Oc2onc(C)c2-c2ccc(C#N)cc2)c1 [Compound 8b, 4-(4-Cyanophenyl)-3-methylisoxazol-5-yl 3-methylbenzoate] | 98 to 100 °C | 420 ± 130 nM | 
CC(=O)Nc1ccc(-c2c(C)noc2OC(=O)c2cccc(C)c2)cc1 [Compound 8d, 4-(4-Acetamidophenyl)-3-methylisoxazol-5-yl3-methylbenzoate] | 57 to 60 °C | 540 ± 110 nM | half-life [2]: 2.9 h; mechanism of HNE inhibition [4]: competitive
Cc1cccc(C(=O)Oc2onc(C)c2-c2ccc(NC(=O)C3CC3)cc2)c1 [Compound 8e, 4-(4-(Ciclopropanecarboxamido)phenyl)-3-methylisoxazol-5-yl3-me-thylbenzoate] | 80 to 82 °C | 620 ± 210 nM | half-life [2]: 5.6 h
CCC(=O)n1oc(=O)c2ccccc21 [Compound 10a, 1-Propionylbenzo[c]isoxazol-3(1H)-one] |  | 25100 ± 3600 nM | 
CCCCC(=O)n1oc(=O)c2ccccc21 [Compound 10b, 1-Pentanoylbenzo[c]isoxazol-3(1H)-one] |  |  | HNE inhibitory activity, result in words [1]: inactive
Cc1cccc(C(=O)n2oc(=O)c3ccccc32)c1 [Compound 10c, 1-(3-Methylbenzoyl)benzo[c]isoxazol-3(1H)-one] | 116 to 119 °C | 638 ± 121 nM | 

From PMC6032016, “Synthesis, biological evaluation, and molecular modelling studies of potent human neutrophil elastase (HNE) inhibitors” (Journal of Enzyme Inhibition and Medicinal Chemistry, 2018)
